# Results published in patent publication US11389435B2, “Compositions and methods for treating epilepsy” (BIOVISTA, INC., priority 2008, dated 2022).
# Marks after values point to notes of the source that are not given here.
# Tests used:
# [1] = at the doses in which it produces its anti-NMDA effect; cited from earlier work
# [2] = test system: NMDA receptor; conditions: Grigoriev et al. Chim. Pharm. Journal, 1988; cited from earlier work
# [3] = test system: Male Wistar rats; assay: Chronic anticonvulsant activity using the kainic acid seizure test in rat; type: in vivo; conditions: for Wet-shakes Presence: 120 min observation; for Wet-shakes Presence / Rearings Presence / Rearings with Forelimb Clonus Presence: out of 10 animals; for Forelimb Clonus No.: average number of all animals; for Rearings Latency / Rearings with Forelimb Clonus Latency / Wet-shakes Latency: average of all animals
# Text: Chronic Anticonvulsant Activity Using the Kainic Acid Seizure Test in Rat. Dimebolins, including the compounds described herein, are shown to be efficacious in the rat kainic acid anticonvulsant activity model. It is appreciated that this model, though general, may also most closely correspond to and/or be more predictive of temporal lobe epilepsy found in humans. However, it is to be understood that this model is a general surrogate for all types of epilepsy.
# Male Wistar rats (such as Male Rj: Wistar (Han) rats, weighing 180-280 g at the day of testing, from Elevage Janvier, 53940 Le Genest-Saint-Isle, France) are placed in groups of 4-5 in macrolon cages (41×25×18 cm or 44×28×19 cm) on wood litter (Litalabo—SPPS, 95100 Argenteuil, France), with free access to food and water until tested, and maintained under artificial lighting (12 hours) between 7:00 and 19:00 in a controlled ambient temperature of about 21° C., and relative humidity between 30-80%. Animals are acclimatized to laboratory conditions for least 3 days. Animals surviving the experiments are sacrificed at the end of the experiments by exposure to a mixture of O2/CO2 (20%/80%) followed by CO2.
# Dimebon, or an analog or derivative thereof, either alone or in combination with one or more other compounds as described herein, is evaluated at 3 doses (e.g. 1, 3, and 10 mg/kg), administered i.p. once daily for seven days, with a administration volume of 5 mL/kg. The last administration (7th) is injected 30 minutes prior to kainic acid administration, and compared with a vehicle control group. The test article (single compound or combination) is prepared in 0.2% HPMC in physiological saline as follows: The test article is tested for solubility by cold stirring of the highest intended dose for 10 minutes in physiological saline. If soluble, physiological saline serves as vehicle, and doses are prepared W/V (stock) and then V/V (serial dilutions). Preparations may be made freshly for each day of administration and precautions may be taken to preserve the homogeneity of suspensions (if applicable) during the period of administration.
# Diazepam (4 mg/kg i.p.) is administered in 0.2% HPMC in physiological saline 30 minutes prior to KA, and is used as reference substance (positive control). Kainic acid (12 mg/kg i.p.) dissolved in physiological saline is administered 30 minutes following the 7th administration of test article, diazepam, or vehicle control. Additional details are described in Ben-Ari et al, Neuroscience, 6, 1361-1391, 1981 for detecting anticonvulsant activity related to a glutamatergic mechanism.
# Animals are injected with kainic acid (12 mg/kg i.p.). The occurrences of the following symptoms are noted over a 120 minute period after kainic acid injection: wet-shakes, rearings, and rearings with forelimb clonus. […] In addition, the latencies to the first appearance of the symptoms are measured and the number of forelimb clonus are counted. The number of forelimb clonus episodes per time interval starting from the first occurrence of forelimb clonus will be considered regarding the severity scale. 10 animals are studied per group. The test is performed blind. Quantitative data is analyzed by comparing treated groups with vehicle control using unpaired Student's t tests. Quantal data is analyzed by comparing treated groups with vehicle control using Fisher's Exact Probability tests.
# [4] = test system: Male Wistar rats; assay: Acute anticonvulsant activity using the kainic acid seizure test in rat; type: in vivo; conditions: single dose 100 mg/kg i.p. 60 minutes prior to kainic acid
# Description: Male Wistar rats (such as Male Rj: […] Animals are acclimatized to laboratory conditions for least 3 days. […] Additional details are described in Ben-Ari et al, Neuroscience, 6, 1361-1391, 1981 for detecting anticonvulsant activity related to a glutamatergic mechanism. Animals are injected with kainic acid (12 mg/kg i.p.). The occurrences of the following symptoms are noted over a 120 minute period after kainic acid injection: wet-shakes, rearings, and rearings with forelimb clonus. […] In addition, the latencies to the first appearance of the symptoms are measured and the number of forelimb clonus are counted. The number of forelimb clonus episodes per time interval starting from the first occurrence of forelimb clonus will be considered regarding the severity scale. 10 animals are studied per group. The test is performed blind. Quantitative data is analyzed by comparing treated groups with vehicle control using unpaired Student's t tests. Quantal data is analyzed by comparing treated groups with vehicle control using Fisher's Exact Probability tests. Acute Anticonvulsant Activity Using the Kainic Acid Seizure Test in Rat. Dimebon, or an analog or derivative thereof, including the compounds described herein, is shown to be efficacious in the rat kainic acid anticonvulsant activity model. […] The 100 mg/kg formulation is prepared in 0.2% HPMC in physiological saline.
# [5] = reference substance 4 mg/kg i.p. 30 minutes prior to kainic acid
# [6] = reference substance 4 mg/kg i.p. 30 minutes prior to kainic acid 12 mg/kg i.p.
# [7] = 1 mg/kg i.p. once daily 7 days, last 30 min before kainic acid
# [8] = 1 mg/kg i.p. once daily 7 days, last 30 min before kainic acid 12 mg/kg i.p.
# [9] = 3 mg/kg i.p. once daily 7 days, last 30 min before kainic acid
# [10] = 3 mg/kg i.p. once daily 7 days, last 30 min before kainic acid 12 mg/kg i.p.
# [11] = 10 mg/kg i.p. once daily 7 days, last 30 min before kainic acid
# [12] = 10 mg/kg i.p. once daily 7 days, last 30 min before kainic acid 12 mg/kg i.p.
compound,measurement,setting,value
"NC(CCCP(=O)(O)O)C(=O)O (stereo not drawn) [AP5, 2-amino-5-phosphonovaleric acid]",neurotoxic effects,[1],disturbance of coordination of movement and a sedative effect
same,ED50 (anti-NMDA effect),[2],190 mg/kg
CN1C(=O)CN=C(c2ccccc2)c2cc(Cl)ccc21 [Diazepam],"Forelimb Clonus No., % change from vehicle",[3]; [5],−79%
same,"Rearings Latency, % change from vehicle",[3]; [5],+8%
same,"Rearings Presence, % change from vehicle",[3]; [5],0%
same,"Rearings with Forelimb Clonus Latency, % change from vehicle",[3]; [5],+36%
same,"Rearings with Forelimb Clonus Presence, % change from vehicle",[3]; [5],−60%
same,"Wet-shakes Latency, % change from vehicle",[3]; [5],+53%
same,"Wet-shakes Presence, % change from vehicle",[3]; [5],−10%
same,Wet-shakes Presence,[3]; [6],9 ^NS
same,Forelimb Clonus No.,[3]; [6],0.6 **
same,Rearings Latency,[3]; [6],4282 ^NS seconds
same,Rearings with Forelimb Clonus Latency,[3]; [6],6841 *** seconds
same,Wet-shakes Latency,[3]; [6],3753 * seconds
same,Rearings Presence,[3]; [6],9 ^NS
same,Rearings with Forelimb Clonus Presence,[3]; [6],4 *^
"Cc1ccc2c(c1)c1c(n2CCc2ccc(C)nc2)CCN(C)C1 [Dimebon, 2,8-dimethyl-5-[2-(6-methyl-3-pyridyl)ethyl]-2,3,4,5-tetrahydro-1H-pyrido[4,3-b]indole]","Forelimb Clonus No., % change from vehicle",[3]; [7],−32%
same,"Rearings Latency, % change from vehicle",[3]; [7],+24%
same,"Rearings Presence, % change from vehicle",[3]; [7],−33%
same,"Rearings with Forelimb Clonus Latency, % change from vehicle",[3]; [7],+19%
same,"Rearings with Forelimb Clonus Presence, % change from vehicle",[3]; [7],−30%
same,"Wet-shakes Latency, % change from vehicle",[3]; [7],+47%^(h)
same,"Wet-shakes Presence, % change from vehicle",[3]; [7],−20%^(g)
same,Wet-shakes Presence,[3]; [8],8 ^NS
same,Forelimb Clonus No.,[3]; [8],1.9 ^NS
same,Rearings Latency,[3]; [8],4896 ^NS seconds
same,Rearings with Forelimb Clonus Latency,[3]; [8],6009 * seconds
same,Wet-shakes Latency,[3]; [8],3615 ^NS seconds
same,Rearings Presence,[3]; [8],6 ^NS
same,Rearings with Forelimb Clonus Presence,[3]; [8],7 ^NS
same,"Forelimb Clonus No., % change from vehicle",[3]; [9],−11%
same,"Rearings Latency, % change from vehicle",[3]; [9],+4%
same,"Rearings Presence, % change from vehicle",[3]; [9],0%
same,"Rearings with Forelimb Clonus Latency, % change from vehicle",[3]; [9],+7%
same,"Rearings with Forelimb Clonus Presence, % change from vehicle",[3]; [9],−10%
same,"Wet-shakes Latency, % change from vehicle",[3]; [9],+9%
same,"Wet-shakes Presence, % change from vehicle",[3]; [9],0%
same,Wet-shakes Presence,[3]; [10],10 ^NS
same,Forelimb Clonus No.,[3]; [10],2.5 ^NS
same,Rearings Latency,[3]; [10],4134 ^NS seconds
same,Rearings with Forelimb Clonus Latency,[3]; [10],5366 ^NS seconds
same,Wet-shakes Latency,[3]; [10],2666 ^NS seconds
same,Rearings Presence,[3]; [10],9 ^NS
same,Rearings with Forelimb Clonus Presence,[3]; [10],9 ^NS
same,"Forelimb Clonus No., % change from vehicle",[3]; [11],−18%
same,"Rearings Latency, % change from vehicle",[3]; [11],+14%
same,"Rearings Presence, % change from vehicle",[3]; [11],−11%
same,"Rearings with Forelimb Clonus Latency, % change from vehicle",[3]; [11],+7%
same,"Rearings with Forelimb Clonus Presence, % change from vehicle",[3]; [11],−10%
same,"Wet-shakes Latency, % change from vehicle",[3]; [11],+17%
same,"Wet-shakes Presence, % change from vehicle",[3]; [11],0%
same,Wet-shakes Presence,[3]; [12],10 ^NS
same,Forelimb Clonus No.,[3]; [12],2.3 ^NS
same,Rearings Latency,[3]; [12],4526 ^NS seconds
same,Rearings with Forelimb Clonus Latency,[3]; [12],5410 ^NS seconds
same,Wet-shakes Latency,[3]; [12],2865 ^NS seconds
same,Rearings Presence,[3]; [12],8 ^NS
same,Rearings with Forelimb Clonus Presence,[3]; [12],9 ^NS
same,"Forelimb Clonus No., % change from vehicle",[4],−54%
same,"Rearings Latency, % change from vehicle",[4],+57%
same,"Rearings Presence, % change from vehicle",[4],−78%
same,"Rearings with Forelimb Clonus Latency, % change from vehicle",[4],−10%
same,"Rearings with Forelimb Clonus Presence, % change from vehicle",[4],−40%
same,"Wet-shakes Latency, % change from vehicle",[4],+79%^(f)
same,"Wet-shakes Presence, % change from vehicle",[4],−50%^(e)
same,Forelimb Clonus No.,[4]; average number of all animals,1.3 ^NS
same,Rearings Latency,[4]; average of all animals,6197 * seconds
same,Rearings with Forelimb Clonus Latency,[4]; average of all animals,4546 ^NS seconds
same,Wet-shakes Latency,[4]; average of all animals,4394 ^NS seconds
same,Rearings Presence,[4]; out of 10 animals,2 *
same,Rearings with Forelimb Clonus Presence,[4]; out of 10 animals,6 ^NS
same,Wet-shakes Presence,[4]; out of 10 animals,5 ^NS
